Values of other authors in patent US4603142A, “Cholesterol lowering method of use” (Wisconsin Alumni Research Foundation, priority 1984, dated 1986).

Settings: compared with tocotrienols; cited from earlier work

Q: With Vitamin E as the substance, how does the Lowering of cholesterol read?
A: does not cause a similar lowering of cholesterol
